{
  "source": "paper PMC7916522",
  "about": "“In Vitro and In Vivo Anti-Candida Activity and Structural Analysis of Killer Peptide (KP)-Derivatives” (Journal of Fungi, 2021)",
  "key": {"Candida albicans SC5314": {"test_system": "Candida albicans SC5314", "test": "CFU assay, neutralization of candidacidal activity by laminarin", "format": "cell-based", "conditions": "peptide at its minimal candidacidal concentration", "description": "The candidacidal activity of KP-derivatives, in comparison to KP, was evaluated by a previously described colony forming unit (CFU) assay against the reference C. albicans strain SC5314 [25]. Briefly, approximately 500 yeast cells were incubated at 37 °C for 6 h in 100 µL of distilled water in the presence or absence (control growth) of the synthetic peptides at serial dilutions. After spreading on Sabouraud Dextrose agar (SDA) plates and incubation for 48–72 h at 30 °C, CFUs were counted. Peptide fungicidal activity was determined as percentage of CFU inhibition, according to the formula 100-(CFUs peptide treated/CFUs control growth) × 100. Each assay was carried out in triplicate and at least two independent experiments were performed for each condition. Half maximal effective concentration (EC50) was calculated by nonlinear regression analysis using GraphPad Prism 5 software (San Diego, CA, USA). CFU assays were also performed in order to verify if laminarin (100 or 200 µg/mL), a soluble β-1,3-glucan, could neutralize the candidacidal activity of KP-derivatives at their minimum fungicidal concentration [25]."}, "LLC-MK2 cells": {"test_system": "LLC-MK2 cells", "conditions": "24 h incubation, resazurin assay; for Cell viability (%) 10 µM: peptide 10 µM; for Cell viability (%) 25 µM: peptide 25 µM; for Cell viability (%) 50 µM: peptide 50 µM", "experimental": "(§1) A stock solution of peptides (20 mg/mL) was prepared in dimethyl sulfoxide (DMSO), then proper dilutions were made for evaluation of biological activities. DMSO at proper concentration was present in controls (without peptides). All the peptides were evaluated for their hemolytic activity against freshly collected human red blood cells, while cytotoxicity against monkey kidney epithelial cells LLC-MK2 was determined by resazurin assay, as previously described."}, "human red blood cells": {"test_system": "human red blood cells", "conditions": "peptide 25 µM", "experimental": "as §1"}},
  "note": "Peptide text beside a SMILES is read from it.",
  "data": [
    {"smiles": "CSCC[C@H](NC(=O)[C@@H](NC(=O)[C@@H](NC(=O)[C@@H](N)CCCCN)C(C)C)[C@@H](C)O)C(=O)N[C@H](C(=O)N[C@@H](CS)C(=O)N[C@@H](CO)C(=O)N[C@@H](C)C(=O)N[C@@H](CO)C(=O)O)[C@@H](C)O", "note": "[Peptide K9S] (H-KVTMTCSAS-OH)", "values": [
      {"measurement": "C. albicans Growth Inhibition (%) in the Presence of Laminarin 100 µg/mL", "setting": "Candida albicans SC5314", "value": "31.09 ± 1.71", "unit": "%"},
      {"measurement": "C. albicans Growth Inhibition (%) in the Presence of Laminarin 200 µg/mL", "setting": "Candida albicans SC5314", "value": "0.68 ± 0.97", "unit": "%"},
      {"measurement": "Cell viability (%) 10 µM", "setting": "LLC-MK2 cells", "value": 100, "unit": "%"},
      {"measurement": "Cell viability (%) 25 µM", "setting": "LLC-MK2 cells", "value": 98.55, "unit": "%"},
      {"measurement": "Cell viability (%) 50 µM", "setting": "LLC-MK2 cells", "value": 95.86, "unit": "%"}
    ]},
    {"smiles": "CSCC[C@H](NC(=O)[C@@H](NC(=O)[C@@H](NC(=O)[C@H](CCCCN)NC(=O)[C@@H](N)CO)C(C)C)[C@@H](C)O)C(=O)N[C@H](C(=O)N[C@@H](CS)C(=O)N[C@@H](CO)C(=O)N[C@@H](C)C(=O)N[C@@H](CO)C(=O)O)[C@@H](C)O", "note": "[Peptide S10S] (H-SKVTMTCSAS-OH)", "values": [
      {"measurement": "C. albicans Growth Inhibition (%) in the Presence of Laminarin 100 µg/mL", "setting": "Candida albicans SC5314", "value": "99.12 ± 0.50", "unit": "%"},
      {"measurement": "C. albicans Growth Inhibition (%) in the Presence of Laminarin 200 µg/mL", "setting": "Candida albicans SC5314", "value": "60.73 ± 13.13", "unit": "%"},
      {"measurement": "Cell viability (%) 10 µM", "setting": "LLC-MK2 cells", "value": 99.77, "unit": "%"},
      {"measurement": "Cell viability (%) 25 µM", "setting": "LLC-MK2 cells", "value": 99.75, "unit": "%"},
      {"measurement": "Cell viability (%) 50 µM", "setting": "LLC-MK2 cells", "value": 91.09, "unit": "%"}
    ]},
    {"smiles": "CSCC[C@H](NC(=O)[C@@H](NC(=O)[C@@H](NC(=O)[C@H](CCCCN)NC(=O)[C@@H]1CCCN1)C(C)C)[C@@H](C)O)C(=O)N[C@H](C(=O)N[C@@H](CS)C(=O)N[C@@H](CO)C(=O)N[C@@H](C)C(=O)N[C@@H](CO)C(=O)O)[C@@H](C)O", "note": "[Peptide P10S] (H-PKVTMTCSAS-OH)", "values": [
      {"measurement": "C. albicans Growth Inhibition (%) in the Presence of Laminarin 100 µg/mL", "setting": "Candida albicans SC5314", "value": "97.71 ± 0.46", "unit": "%"},
      {"measurement": "C. albicans Growth Inhibition (%) in the Presence of Laminarin 200 µg/mL", "setting": "Candida albicans SC5314", "value": "3.10 ± 4.38", "unit": "%"},
      {"measurement": "Cell viability (%) 10 µM", "setting": "LLC-MK2 cells", "value": 93.25, "unit": "%"},
      {"measurement": "Cell viability (%) 25 µM", "setting": "LLC-MK2 cells", "value": 90.20, "unit": "%"},
      {"measurement": "Cell viability (%) 50 µM", "setting": "LLC-MK2 cells", "value": 89.77, "unit": "%"}
    ]},
    {"smiles": "CSCC[C@H](NC(=O)[C@@H](NC(=O)[C@@H](NC(=O)[C@H](CCCCN)NC(=O)[C@H](C)N)C(C)C)[C@@H](C)O)C(=O)N[C@H](C(=O)N[C@@H](CS)C(=O)N[C@@H](CO)C(=O)N[C@@H](C)C(=O)N[C@@H](CO)C(=O)O)[C@@H](C)O", "note": "[A10S (KP)] (H-AKVTMTCSAS-OH)", "values": [
      {"measurement": "C. albicans Growth Inhibition (%) in the Presence of Laminarin 100 µg/mL", "setting": "Candida albicans SC5314", "value": "96.39 ± 1.68", "unit": "%"},
      {"measurement": "C. albicans Growth Inhibition (%) in the Presence of Laminarin 200 µg/mL", "setting": "Candida albicans SC5314", "value": "1.80 ± 0.49", "unit": "%"},
      {"measurement": "hemolysis after 30 min", "setting": "human red blood cells; 30 min incubation", "value": 1.13, "unit": "%"},
      {"measurement": "Cell viability (%) 10 µM", "setting": "LLC-MK2 cells", "value": 93.59, "unit": "%"},
      {"measurement": "Cell viability (%) 25 µM", "setting": "LLC-MK2 cells", "value": 88.20, "unit": "%"},
      {"measurement": "Cell viability (%) 50 µM", "setting": "LLC-MK2 cells", "value": 89.71, "unit": "%"}
    ]},
    {"smiles": "CSCC[C@H](NC(=O)[C@@H](NC(=O)[C@@H](NC(=O)[C@H](CCCCN)NC(=O)[C@@H](N)CCCCN)C(C)C)[C@@H](C)O)C(=O)N[C@H](C(=O)N[C@@H](CS)C(=O)N[C@@H](CO)C(=O)N[C@@H](C)C(=O)N[C@@H](CO)C(=O)O)[C@@H](C)O", "note": "[Peptide K10S] (H-KKVTMTCSAS-OH)", "values": [
      {"measurement": "C. albicans Growth Inhibition (%) in the Presence of Laminarin 100 µg/mL", "setting": "Candida albicans SC5314", "value": "1.07 ± 0.39", "unit": "%"},
      {"measurement": "hemolysis after 120 min", "setting": "human red blood cells; 120 min incubation", "value": 2.42, "unit": "%"},
      {"measurement": "Cell viability (%) 10 µM", "setting": "LLC-MK2 cells", "value": 93.74, "unit": "%"},
      {"measurement": "Cell viability (%) 25 µM", "setting": "LLC-MK2 cells", "value": 100, "unit": "%"},
      {"measurement": "Cell viability (%) 50 µM", "setting": "LLC-MK2 cells", "value": 90.95, "unit": "%"}
    ]},
    {"smiles": "CSCC[C@H](NC(=O)[C@@H](NC(=O)[C@@H](NC(=O)[C@H](CCCCN)NC(=O)[C@@H](N)Cc1ccc(O)cc1)C(C)C)[C@@H](C)O)C(=O)N[C@H](C(=O)N[C@@H](CS)C(=O)N[C@@H](CO)C(=O)N[C@@H](C)C(=O)N[C@@H](CO)C(=O)O)[C@@H](C)O", "note": "[Peptide Y10S] (H-YKVTMTCSAS-OH)", "values": [
      {"measurement": "C. albicans Growth Inhibition (%) in the Presence of Laminarin 100 µg/mL", "setting": "Candida albicans SC5314", "value": "5.57 ± 4.84", "unit": "%"},
      {"measurement": "Cell viability (%) 10 µM", "setting": "LLC-MK2 cells", "value": 96.89, "unit": "%"},
      {"measurement": "Cell viability (%) 25 µM", "setting": "LLC-MK2 cells", "value": 95.35, "unit": "%"},
      {"measurement": "Cell viability (%) 50 µM", "setting": "LLC-MK2 cells", "value": 97.18, "unit": "%"}
    ]},
    {"smiles": "CSCC[C@H](NC(=O)[C@@H](NC(=O)[C@@H](NC(=O)[C@H](CCCCN)NC(=O)[C@@H](N)CC(C)C)C(C)C)[C@@H](C)O)C(=O)N[C@H](C(=O)N[C@@H](CS)C(=O)N[C@@H](CO)C(=O)N[C@@H](C)C(=O)N[C@@H](CO)C(=O)O)[C@@H](C)O", "note": "[Peptide L10S] (H-LKVTMTCSAS-OH)", "values": [
      {"measurement": "C. albicans Growth Inhibition (%) in the Presence of Laminarin 100 µg/mL", "setting": "Candida albicans SC5314", "value": 0, "unit": "%"},
      {"measurement": "Cell viability (%) 10 µM", "setting": "LLC-MK2 cells", "value": 95.70, "unit": "%"},
      {"measurement": "Cell viability (%) 25 µM", "setting": "LLC-MK2 cells", "value": 93.44, "unit": "%"},
      {"measurement": "Cell viability (%) 50 µM", "setting": "LLC-MK2 cells", "value": 98.07, "unit": "%"}
    ]},
    {"smiles": "CSCC[C@H](NC(=O)[C@@H](NC(=O)[C@@H](NC(=O)[C@H](CCCCN)NC(=O)[C@@H](N)Cc1c[nH]cn1)C(C)C)[C@@H](C)O)C(=O)N[C@H](C(=O)N[C@@H](CS)C(=O)N[C@@H](CO)C(=O)N[C@@H](C)C(=O)N[C@@H](CO)C(=O)O)[C@@H](C)O", "note": "[Peptide H10S] (H-HKVTMTCSAS-OH)", "values": [
      {"measurement": "C. albicans Growth Inhibition (%) in the Presence of Laminarin 100 µg/mL", "setting": "Candida albicans SC5314", "value": "6.20 ± 3.71", "unit": "%"},
      {"measurement": "Cell viability (%) 10 µM", "setting": "LLC-MK2 cells", "value": 96.77, "unit": "%"},
      {"measurement": "Cell viability (%) 25 µM", "setting": "LLC-MK2 cells", "value": 94.90, "unit": "%"},
      {"measurement": "Cell viability (%) 50 µM", "setting": "LLC-MK2 cells", "value": 90.99, "unit": "%"}
    ]}
  ]
}
